Values of other authors as cited in US9075045B2, “Cell-based detection of APF through its interaction with CKAP4 for diagnosis of interstitial cystitis” (THE COMMONWEALTH MEDICAL COLLEGE, priority 2008, dated 2015).
Read-outs that look alike come from different tables or passages of the source.

Compound: C[S+](C)[O-] [dimethyl sulfoxide]
- effect on IC symptoms (bladder instillation every week or two for 6 to 8 weeks): improve symptoms temporarily

Compound: Bacillus Calmette-Guerin
- effect on IC symptoms (intravesicular agent): improve symptoms

Compound: Pentosan polysulfate sodium
- improved symptoms in % of patients (given orally (100 mg three times a day)): 30%
